Where two headings read alike, the source gives them in different places. Ends that are not written are not given here.
Tests used:
[1] = parameters: method as in 2 sources, one per row (each row's own in cited_ref): ref 19 = [19]; doi:10.1016/j.procbio.2018.06.001; 19. Jin J. Ahn C. Je J. Puri Fi Cation and Characterization of Antioxidant Peptides from Enzymatically Hydrolyzed Ark Shell ( Scapharca subcrenata ) Process Biochem. 2018 72 170 176 10.1016/j.procbio. ||| ref 21 = [21]; PMID 26304349; doi:10.1016/j.foodchem.2015.07.015; 21. Zheng L. Zhao M. Xiao C. Zhao Q. Su G. Practical Problems When Using ABTS Assay to Assess the Radical-Scavenging Activity of Peptides: Importance of Controlling Reaction PH and Time Food Chem. 201; settings: cited from earlier work; for ABTS antioxidant activity: ark shell (Scapharca subcrenata) peptides, values converted to the same units
[2] = ark shell (Scapharca subcrenata) peptides, values converted to the same units; cited from earlier work
Description: In the ORAC assay, the values were 0.334 µmol TE/µmol of peptide for P1 and ...

ACE = system: ACE; parameters: method as in 2 sources, one per row (each row's own in cited_ref): ref 27 = [27]; PMID 29533693; doi:10.1080/10408398.2018.1452182; 27. Yathisha U.G. Bhat I. Karunasagar I. Mamatha B.S. Antihypertensive Activity of Fish Protein Hydrolysates and Its Peptides Crit. Rev. Food Sci. Nutr. 2019 59 2363 2374 10.1080/10408398.2018.1452182 ||| ref 28 = [28]; PMID 31671730; doi:10.3390/md17110613; 28. Abachi S. Bazinet L. Beaulieu L. Antihypertensive and Angiotensin-i-Converting Enzyme (ACE)-Inhibitory Peptides from Fish as Potential Cardioprotective Compounds Mar. Drugs 2019 17 613 10.3390/md1; settings: cited from earlier work
α-glucosidase [3] = molecular target: α-glucosidase (Saccharomyces cerevisiae, UniProt P53341); experiment: biochemical
Chain of α-glucosidase (Saccharomyces cerevisiae, UniProt P53341) (P53341 whole entry): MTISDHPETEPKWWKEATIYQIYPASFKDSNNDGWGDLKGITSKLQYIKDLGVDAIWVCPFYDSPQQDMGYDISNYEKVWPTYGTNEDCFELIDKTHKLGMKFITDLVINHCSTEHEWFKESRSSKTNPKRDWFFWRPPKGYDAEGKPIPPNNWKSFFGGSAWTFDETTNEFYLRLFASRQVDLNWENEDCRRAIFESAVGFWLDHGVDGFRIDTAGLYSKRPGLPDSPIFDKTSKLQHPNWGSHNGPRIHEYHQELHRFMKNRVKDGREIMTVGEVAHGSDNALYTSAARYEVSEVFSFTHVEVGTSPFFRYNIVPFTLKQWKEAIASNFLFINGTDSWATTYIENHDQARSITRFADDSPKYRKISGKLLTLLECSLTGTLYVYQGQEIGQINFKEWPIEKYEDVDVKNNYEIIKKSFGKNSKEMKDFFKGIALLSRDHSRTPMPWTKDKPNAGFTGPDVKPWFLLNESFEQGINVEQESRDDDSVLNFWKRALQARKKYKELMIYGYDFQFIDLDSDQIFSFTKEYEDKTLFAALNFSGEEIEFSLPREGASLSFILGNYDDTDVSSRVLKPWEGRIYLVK
Protocol: The α-glucosidase inhibitory activity was evaluated through the following method, outlined by Vilas-Boas et al. [42]. The assay was performed in a 96-well microplate (Stansted) and incubated at 25 °C for 5 min, and the absorbance was monitored at 405 nm with a microplate reader (Synergy H1, BioTek Instruments, Winooski, VT, USA). A negative control was performed, with 50 μL of a buffer solution that replaced the peptides. […] Each sample and control analysis was triplicated. The inhibition of α-glucosidase was quantified as the concentration required to inhibit 50% of the enzymatic activity (IC50). The IC50 values were determined using non-linear modelling of the data obtained.

α-glucosidase [4] = molecular target: α-glucosidase; parameters: method as in PMID 34445765; settings: peptides hydrolyzed from food sources; cited from earlier work
Protocol: The peptides were tested for antidiabetic activity based on the capacity to inhibit 50% of […].

[5] = peptides from fish protein hydrolysates

What does the source list for `N[C@@H](Cc1ccc(O)cc1)C(=O)O` [Tyr]?
ABTS radical scavenging value ([1]; pH 6.0): 2.89 µmol TE/µmol; ABTS radical scavenging value ([1]; pH 8.0): 6.55 µmol TE/µmol

With HPLDSLCL [P2] as the compound, how does the ABTS antioxidant activity [1] read?
The ABTS antioxidant activity was 0.005 µmol TE/µmol of peptide.

And the ORAC antioxidant activity [2]?
Its ORAC antioxidant activity is 0.239 µmol TE/µmol of peptide.

With “HWTTQR [peptide from Syngnathus schlegeli protein hydrolysate]” as the compound, how does the “ACE inhibition IC50” value (ACE; [5]) read?
Its value is 1440 mg/L.

With IKPLNY as the compound, how does the “ACE inhibition IC50” value (ACE; synthesized peptide before/after fragmentation in digestion) read?
Its value is 32 mg/L.

Which ABTS antioxidant activity [1] does the source give for MCLDSCLL [P1] here?
The ABTS antioxidant activity was 0.678 µmol Trolox equivalents (TE)/µmol of peptide.

What about the ORAC antioxidant activity [2] of the same compound?
Its ORAC antioxidant activity is 0.334 µmol TE/µmol of peptide.

With PAPPPPPP [HdPPP] as the compound, how does the IC50 (α-glucosidase [3]; α-glucosidase IC50, 25 °C, 5 min, absorbance 405 nm, mean ± standard deviation, n = 3) read?
Its IC50 is 2210 µM.

And the IC50 (α-glucosidase [3]; α-glucosidase IC50, same result in molar units)?
The IC50 was 2210 µM.

For RVPSLM, which IC50 (α-glucosidase [4]) is on record?
The IC50 was 23.1 µM.

For “TFPHGP [peptide from Syngnathus schlegeli protein hydrolysate]”, which “ACE inhibition IC50” value (ACE; [5]) is on record?
The value was 600 mg/L.

For TPSPR, which IC50 (α-glucosidase [4]) is on record?
Its IC50 is 40 µM.

Reference: PMC11857211, “Bioprospecting Bioactive Peptides in Halobatrachus didactylus Body Mucus: From In Silico Insights to Essential In Vitro Validation” (Marine Drugs, 2025)
